{"source": "patent US20150368195A1", "about": "“INDOLINE COMPOUNDS FOR TREATMENT AND/OR PREVENTION OF INFLAMMATION DISEASES” (Taipei Medical University, priority 2014, published 2015)", "key": {"collagen I": {"tested_on": "collagen I", "assay": "TGF-β-induced collagen I production, Western blot", "type": "cell-based, human", "conditions": "WI-38 lung fibroblasts; 1 μM pretreatment; TGF-β 10 ng/mL 24 h", "description": "(§1) Western blot analysis was performed. First, WI-38 lung fibroblasts were incubated with different concentrations of MPT0E028 (0.01, 0.03, 0.1, 0.3, or 1 μM) (FIG. 10A) or MPT0G009 (0.01, 0.03, 0.1, 0.3, or 1 μM) (FIG. 10B) for 30 min before and during incubation for 2 h with TGF-β (10 ng/mL). WI-38 lung fibroblasts were incubated with 1 μM MPT0E028 and MPT0G009 for 30 min and following another incubation for 2 h with 1 U/ml thrombin (FIG. 10C) and 10 nM ET-1 (FIG. 10D). The collagen I production from WI-38 lung fibroblasts stimulated by 10 ng/mL TGF-β for 24 h was inhibited with 1 μM MPT0E028 and MPT0G009 pretreatment (FIG. 10E).\nWI-38 cells, a normal human embryonic lung fibroblast cell line, were obtained from American Type Culture Collection (Manassas, Va.). […]\nWestern blot analyses were performed as described previously (Chen B C, Chang Y S, Kang J C, Hsu M J, Sheu J R, Chen T L, et al. Peptidoglycan induces nuclear factor-kappaB activation and cyclooxygenase-2 expression via Ras, Raf-1, and ERK in RAW 264.7 macrophages. J Biol Chem 2004; 279:20889-97). […] The immunoreactivity was detected using enhanced chemiluminescence (ECL) following the manufacturer's instructions. Quantitative data were obtained using a computing densitometer with scientific imaging systems (Kodak, Rochester, N.Y.). […]"}, "CTGF": {"tested_on": "CTGF", "assay": "pro-fibrogenic mediator-induced CTGF production, Western blot", "type": "cell-based, human", "conditions": "WI-38 lung fibroblasts", "description": "as §1\nWI-38 cells, a normal human embryonic lung fibroblast cell line, were obtained from American Type Culture Collection (Manassas, Va.). Cells were grown in MEM nutrient mixture, containing 10% FCS, 2 mM L-glutamine, 0.1 mM NEAA, 1 mM sodium pyruvate, 50 U/ml penicillin G, and 100 μg/ml streptomycin, in a humidified 37° C. incubator with 5% CO2 Cells were used between passages 18 and 30 for all experiments. After reaching confluence, cells were seeded onto 6-cm dishes for immunoblotting.\nWestern blot analyses were performed as described previously (Chen B C, Chang Y S, Kang J C, Hsu M J, Sheu J R, Chen T L, et al. Peptidoglycan induces nuclear factor-kappaB activation and cyclooxygenase-2 expression via Ras, Raf-1, and ERK in RAW 264.7 macrophages. J Biol Chem 2004; 279:20889-97). Briefly, WI-38 lung fibroblasts were cultured in 6-cm dishes. After reaching confluence, cells were pretreated with specific inhibitors (E028 and G009) as indicated for 30 min, and then treated with the vehicle (H2O) or 10 ng/ml TGF-β for 2 h (CTGF assay) or 24 h (collagen I assay). Whole-cell lysates ([…]) were subjected to 12% (CTGF) or 8% (collagen I) SDS-PAGE, and transferred onto a polyvinylidene difluoride membrane which was then incubated in TBST buffer (150 mM NaCl, 20 mM Tris-HCl, and 0.02% Tween 20; pH 7.4) containing 5% BSA. Proteins were visualized by specific primary antibodies and then incubated with HRP-conjugated secondary antibodies. The immunoreactivity was detected using enhanced chemiluminescence (ECL) following the manufacturer's instructions. Quantitative data were obtained using a computing densitometer with scientific imaging systems (Kodak, Rochester, N.Y.).\nTo determine whether the inhibitory effects of MPT0E028 and MPT0G009 on pro-fibrogenic mediators (TGF-β, thrombin, and ET-1) were related to the modulation of CTGF and Collagen I production, Western blot analysis was performed. First, WI-38 lung fibroblasts were incubated with different concentrations of MPT0E028 (0.01, 0.03, 0.1, 0.3, or 1 μM) (FIG. 10A) or MPT0G009 (0.01, 0.03, 0.1, 0.3, or 1 μM) (FIG. 10B) for 30 min before and during incubation for 2 h with TGF-β (10 ng/mL). […] Furthermore, we examined the effects of MPT0E028 and MPT0G009 on other pro-fibrogenic mediators. As shown in FIGS. 10C and 10D, WI-38 lung fibroblasts were incubated with 1 μM MPT0E028 and MPT0G009 for 30 min and following another incubation for 2 h with 1 U/ml thrombin (FIG. 10C) and 10 nM ET-1 (FIG. 10D)."}}, "data": [{"compound": "O=C(/C=C/c1ccc2c(c1)CCN2S(=O)(=O)c1ccccc1)NO", "note": "[MPT0E028]", "values": [{"measurement": "collagen I production", "setting": "collagen I", "value": "inhibited"}, {"measurement": "ET-1-induced CTGF expression", "setting": "CTGF; 1 μM, 10 nM ET-1 2 h", "value": "inhibited"}, {"measurement": "thrombin-induced CTGF expression", "setting": "CTGF; 1 μM, 1 U/ml thrombin 2 h", "value": "inhibited"}, {"measurement": "TGF-β-induced CTGF production", "setting": "CTGF; 0.01-1 μM, TGF-β 10 ng/mL 2 h", "value": "significantly inhibited"}]}]}
